Experiments:
[1] = Tested for water solubility of the compound; assay type: ADME; details: read-out: S
[2] = molecular target: T1, Acetylcholinesterase (Homo sapiens, UniProt P22303)
Description: In vitro reversal of vecuronium-induced neuromuscular block in guinea pig hemi-diaphragm.

[3] = molecular target: T1, Acetylcholinesterase; remark: listed apart in the source
[4] = system: Felis catus; assay: Change in heart rate was detected in anaesthetised cats on administration of the compound; assay type: functional; also: test concentration or dose not given here
[5] = system: Felis catus; assay: Mean arterial pressure change was detected in anaesthetised cats on administration of the compound; assay type: functional, Artery; also: test concentration or dose not given here
[6] = system: Felis catus; assay: Maximum reversal of vecuronium-induced neuromuscular block in-vivo in anaesthetised cats; assay type: functional
[7] = system: Felis catus; assay: Change in response to vagal stimulation was detected in anaesthetised cats on administration of the compound; assay type: functional; also: test concentration or dose not given here
[8] = system: Felis catus; assay: Effective dose required for the reversal of vecuronium-induced neuromuscular block in-vivo in Chloaralose anaesthetised cats; assay type: functional
[9] = system: Felis catus; assay: Maximum reversal of vecuronium-induced neuromuscular block in-vivo in anaesthetised cats at 1.28 umol/kg; assay type: functional
[10] = molecular target: T1, Acetylcholinesterase; assay: In vitro inhibition of human recombinant AChE.

T1 sequence (P22303 whole entry): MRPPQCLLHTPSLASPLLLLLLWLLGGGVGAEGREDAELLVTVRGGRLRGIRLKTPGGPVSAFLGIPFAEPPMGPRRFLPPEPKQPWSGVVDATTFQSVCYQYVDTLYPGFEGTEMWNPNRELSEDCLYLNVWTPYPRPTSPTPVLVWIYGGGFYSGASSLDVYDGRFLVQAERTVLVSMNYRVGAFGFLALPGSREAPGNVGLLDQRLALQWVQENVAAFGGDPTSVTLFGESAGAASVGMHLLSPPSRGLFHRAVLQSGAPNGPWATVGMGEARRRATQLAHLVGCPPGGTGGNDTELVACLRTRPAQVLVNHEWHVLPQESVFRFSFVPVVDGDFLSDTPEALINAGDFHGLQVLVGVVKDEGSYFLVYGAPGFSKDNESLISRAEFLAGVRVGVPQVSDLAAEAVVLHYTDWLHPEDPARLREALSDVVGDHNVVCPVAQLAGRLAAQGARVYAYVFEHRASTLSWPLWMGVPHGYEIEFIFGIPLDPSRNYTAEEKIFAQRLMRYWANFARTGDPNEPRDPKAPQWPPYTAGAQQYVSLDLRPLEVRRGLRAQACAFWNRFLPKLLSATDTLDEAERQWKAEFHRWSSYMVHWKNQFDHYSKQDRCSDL

With `C[N+]1(Cc2ccccc2)CCC(CCC(=O)c2ccc3c(c2)OCO3)CC1` (configuration not stated) the solubility [1] was 500 µg/mL, the EC50 [2] was 1.7 µM and the IC50 [3] was 0.24 µM.
In the case of `COc1cc2c(cc1OC)C(=O)C(C(O)C1CC[N+](Cc3ccccc3)(Cc3ccccc3)CC1)C2` (configuration not stated), the EC50 [2] is reported as 43.5 µM.
With `C[N+]1(Cc2ccccc2)CCC(CCC(=O)c2ccc3c(c2)CCCCO3)CC1` (configuration not stated) the solubility [1] was 5000 µg/mL and the IC50 [3] was 0.139 µM.
`COc1cc2c(cc1OC)C(=O)[C@@H]([C@@H](O)C1CC[N+](C)(Cc3ccccc3)CC1)C2` (some centres not stated) showed an EC50 [2] of 2.7 µM.
Molecule `COc1cc2c(cc1OC)C(=O)C(CC1CC[N+](C)(Cc3ccccc3)CC1)C2` (configuration not stated) has an EC50 [2] of 0.1 µM, an HR [4] of 11 delta % and an MAP [5] of -22 delta %. It also gave a Max rev [6] of 131%, a Vagus [7] of 37 delta % and an IC50 [3] of 0.025 µM. For the same molecule, the ED50 [8] was ~0.06 µmol/kg.
With `C[N+]1(Cc2ccccc2)CCC(CCC(=O)c2ccc3c(c2)NCCCC3)CC1` (configuration not stated) the EC50 [2] was 0.331 µM, the HR [4] was 4 delta % and the MAP [5] was -6 delta %. For the same molecule, the Max rev [6] was 140%, the Vagus [7] was 10 delta % and the IC50 [3] was < 0.5 µM. The ED50 [8] was 0.15 µmol/kg.
`COc1cc2cc(C(=O)CCC3CC[N+](C)(Cc4ccccc4)CC3)n(C)c2cc1OC` (configuration not stated) gave a solubility [1] of 1200 µg/mL, an EC50 [2] of 1.6 µM and an IC50 [3] of 0.12 µM.
With `CC1=CC2Cc3[nH]c(=O)ccc3C3(C1)C2CCCN3C` (configuration not stated) the EC50 [2] was > 10 µM and the IC50 [3] was > 100 µM.
In the case of `COc1ccc2c3c1OC1C[C@@H](O)C=C[C@@]31CC[N+](C)(C)C2` (some centres not stated), the EC50 [2] is reported as 0.63 µM, the HR [4] is reported as -5 delta % and the MAP [5] is reported as 16 delta %. It also gave a Max rev [6] of 130%, a Vagus [7] of 80 delta % and an IC50 [3] of ~0.5 µM. For the same molecule, the ED50 [8] was 0.1 µmol/kg.
In the case of `C[N+]1(Cc2ccccc2)CCC(CCC(=O)c2ccc3c(c2)OCCO3)CC1` (configuration not stated), the solubility [1] is reported as < 500 µg/mL, the EC50 [2] is reported as > 3 µM and the IC50 [3] is reported as 0.1 µM.
For `C[N@+]1(Cc2ccccc2)CC[C@H](CCC(=O)c2ccc3c(c2)CCO3)CC1`, the solubility [1] was > 10000 µg/mL and the IC50 [3] was 0.066 µM.
In the case of `COc1cc2c(cc1OC)C(=O)/C(=C/c1cc[n+](Cc3ccccc3)cc1)C2`, the EC50 [2] is reported as 0.012 µM.
`Cc1cc(C(=O)CCC2CC[N+](C)(Cc3ccccc3)CC2)nn1-c1ccccc1` (configuration not stated) gave a solubility [1] of 2000 µg/mL, an EC50 [2] of 0.43 µM and an IC50 [3] of 0.022 µM.
For `COc1cc2cc(C(=O)CCC3CC[N+](C)(Cc4ccccc4)CC3)sc2cc1OC` (configuration not stated), the solubility [1] was 2000 µg/mL, the EC50 [2] was 0.019 µM and the IC50 [3] was 0.008 µM.
With `C[N+]1(Cc2ccccc2)CCC(CCC(=O)c2ccc3c(c2)CCO3)CC1` (configuration not stated) the solubility [1] was 1500 µg/mL, the EC50 [2] was 0.09 µM and the IC50 [3] was 0.017 µM.
For `COc1cc2c(cc1OC)C(=O)[C@@H]([C@H](O)C1CC[N+](C)(Cc3ccccc3)CC1)C2` (some centres not stated), the EC50 [2] was 0.89 µM.
`COc1cc2c(cc1OC)C(=O)C(Cc1cc[n+](Cc3ccccc3)cc1)C2` (configuration not stated) showed an EC50 [2] of 0.1 µM.
With `COc1ccc2cc(C(=O)CCC3CC[N+](C)(Cc4ccccc4)CC3)ccc2c1` (configuration not stated) the solubility [1] was < 1000 µg/mL, the EC50 [2] was 0.53 µM and the IC50 [3] was 0.05 µM.
`COc1cc2c(cc1OC)C(=O)C(C(O)C1CC[N+](C)(Cc3ccccc3)CC1)C2` (configuration not stated) showed an EC50 [2] of 1.44 µM, an HR [4] of -12 delta % and a Max rev [9] of 109%. It also gave an MAP [5] of -22 delta %, a Vagus [7] of 18 delta % and an ED50 [8] of 0.21 µmol/kg.
For `COc1cc2c(cc1OC)C(=O)C(C(O)c1cc[n+](Cc3ccccc3)cc1)C2` (configuration not stated), the EC50 [2] was 1.88 µM.
`COc1cc2c(cc1OC)C(=O)C(CC1CCN(Cc3ccccc3)CC1)C2` (configuration not stated) [DONEPEZIL] showed an HR [4] of -12 delta %, an MAP [5] of -12 delta % and a Max rev [6] of 106%. It also gave a Vagus [7] of 14 delta % and an ED50 [8] of 0.53 µmol/kg.
Work on `CC1=C[C@H]2Cc3[nH]c(=O)ccc3[C@]3(C1)NCCC[C@H]23` [HUPERZINE B] yielded an EC50 [2] of 0.019 µM, an HR [4] of -8 delta % and an IC50 [10] of 0.03 µM. The MAP [5] was -17 delta %, the Max rev [6] was 156% and the Vagus [7] was 102 delta %. It also gave an ED50 [8] of 0.08 µmol/kg.
For `O=C(CCC1CCN(Cc2ccccc2)CC1)c1ccc2c(c1)NCCCC2` [ZANAPEZIL], the HR [4] was -5 delta %, the MAP [5] was -11 delta % and the Max rev [6] was 68%. For the same molecule, the Vagus [7] was 8 delta % and the ED50 [8] was 3.7 µmol/kg.

From ChEMBL document CHEMBL1135324, “Quaternary salts of E2020 analogues as acetylcholinesterase inhibitors for the reversal of neuromuscular block” (Bioorg Med Chem Lett, 2002)
